Experiment [1] addresses Autotaxin (Homo sapiens) (UniProt Q13822). As to the kind of experiment: Inhibition of human recombinant ATX at 10 uM after 16 hrs; values are per cent of control.
The target is the same in experiment [2]. Description: Inhibition of human recombinant ATX at 100 uM after 16 hrs; values are per cent of control.
Experiment [3] shares this target. Description: Inhibition of human recombinant ATX at 1 uM after 16 hrs; values are per cent of control.

For `CCCCCCCCCCCCCCCC(=O)N[C@H](Cc1ccc(OCCC)cc1)C(=O)CP(=O)(O)O`, the residual activity (in general, the signal under treatment as a percentage of the control signal) was 97% on Autotaxin (Homo sapiens) [1], 75% at Autotaxin (Homo sapiens) [2] and 104% at Autotaxin (Homo sapiens) [3].

`CCCCCCCCCCCCCCCC(=O)N[C@H](Cc1ccc(OC)cc1)C(O)CP(=O)(O)O` (stereo in doubt; f20): the residual activity on Autotaxin (Homo sapiens) [1] was determined as 84%; on Autotaxin (Homo sapiens) [2], 82%; at Autotaxin (Homo sapiens) [3], 95%.

Consider `CCCCCCCCCCCCCCCC(=O)N[C@H](Cc1ccc(OCCC)cc1)C(O)CP(=O)(O)O` (single isomer, unassigned; diastereomer b), for which the results for the residual activity at Autotaxin (Homo sapiens) [1], at Autotaxin (Homo sapiens) [2] and at Autotaxin (Homo sapiens) [3] were 108%, 90% and 108%, respectively.

On to `CCCCCCCCCCCCCCCC(=O)N[C@H](Cc1ccc(OCc2ncc(C)c(OC)c2C)cc1)C(O)CP(=O)(O)O` (single isomer, unassigned; diastereomer a), for which the values for the residual activity on Autotaxin (Homo sapiens) [1], at Autotaxin (Homo sapiens) [2] and at Autotaxin (Homo sapiens) [3] were 95%, 63% and 108%, respectively.

Regarding `CCCCCCCCCCCCCCCC(=O)N[C@@H](Cc1ccc(OCCC(C)C)cc1)C(O)CP(=O)(O)O` (stereo in doubt; f34), the residual activity is 101% on Autotaxin (Homo sapiens) [1], 91% at Autotaxin (Homo sapiens) [2] and 106% on Autotaxin (Homo sapiens) [3].

On to `CCCCCCCCCCCCCCCC(=O)N[C@H](Cc1ccc(OCc2ccccc2)cc1)C(O)CP(=O)(O)O` (single isomer, unassigned; diastereomer a), for which the residual activity came to 82% at Autotaxin (Homo sapiens) [1], 83% at Autotaxin (Homo sapiens) [2] and 83% on Autotaxin (Homo sapiens) [3].

Regarding `CCCCCCCCCCCCCCCC(=O)N[C@H](Cc1ccc(OCC2CCCCC2)cc1)C(O)CP(=O)(O)O` (single isomer, unassigned), the residual activity on Autotaxin (Homo sapiens) [1] came to 80%; on Autotaxin (Homo sapiens) [2], 67%; on Autotaxin (Homo sapiens) [3] it was 84%.

Turning to `CCCCCCCCCCCCCCCC(=O)N[C@@H](Cc1ccc(OCc2ccccc2)cc1)C(O)CP(=O)(O)O` (single isomer, unassigned; diastereomer a), the residual activity at Autotaxin (Homo sapiens) [1] was found to be 77%; on Autotaxin (Homo sapiens) [2], 68%; at Autotaxin (Homo sapiens) [3], 97%.

`CCCCCCCCCCCCCCCC(=O)N[C@@H](Cc1ccc(OCc2ccccc2)cc1)C(O)CP(=O)(O)O` (single isomer, unassigned; diastereomer b): the residual activity turned out to be 83% on Autotaxin (Homo sapiens) [1], 78% at Autotaxin (Homo sapiens) [2] and 76% on Autotaxin (Homo sapiens) [3].

On to `CCCCCCCCCCCCCCCC(=O)N[C@@H](Cc1ccc(OCCC(C)C)cc1)C(=O)CP(=O)(O)O`, for which the residual activity on Autotaxin (Homo sapiens) [1] came out at 104%; at Autotaxin (Homo sapiens) [2], 85%; at Autotaxin (Homo sapiens) [3] it was 104%.

In the case of `CCCCCCCCCCCCCCCC(=O)N[C@@H](Cc1ccc(OCc2ccccn2)cc1)C(=O)CP(=O)(O)O`, the results for the residual activity at Autotaxin (Homo sapiens) [1], on Autotaxin (Homo sapiens) [2] and at Autotaxin (Homo sapiens) [3] were 72%, 50% and 102%, respectively.

As to `CCCCCCCCCCCCCCCCCC(=O)N[C@@H](Cc1ccc(OCc2ncc(C)c(OC)c2C)cc1)C(O)CP(=O)(O)O` (stereo in doubt; f39), the residual activity at Autotaxin (Homo sapiens) [1] stood at 91%; at Autotaxin (Homo sapiens) [2], 81%; at Autotaxin (Homo sapiens) [3], 101%.

Regarding `CCCCCCCCCCCCCCCC(=O)N[C@@H](Cc1ccc(OCc2ncc(C)c(OC)c2C)cc1)C(O)CP(=O)(O)O` (stereo in doubt; f17), the values for the residual activity at Autotaxin (Homo sapiens) [1], at Autotaxin (Homo sapiens) [2] and at Autotaxin (Homo sapiens) [3] were 13%, 6% and 27%, respectively.

Turning to `CCCCCCCCCCCCCCCC(=O)N[C@H](Cc1ccc(OCCCCC)cc1)C(O)CP(=O)(O)O` (single isomer, unassigned; diastereomer a), the residual activity on Autotaxin (Homo sapiens) [1] stood at 85%; on Autotaxin (Homo sapiens) [2], 80%; on Autotaxin (Homo sapiens) [3], 81%.

With `CCCCCCCCCCCCCCCC(=O)N[C@@H](Cc1ccc(OCc2cc(OCC(F)(F)F)ccn2)cc1)C(=O)CP(=O)(O)O`, the residual activity is 68% on Autotaxin (Homo sapiens) [1], 44% at Autotaxin (Homo sapiens) [2] and 79% on Autotaxin (Homo sapiens) [3].

In the case of `CCCCCCCCCCCCCCCC(=O)N[C@H](Cc1ccc(OCc2cc(OCC(F)(F)F)ccn2)cc1)C(=O)CP(=O)(O)O`, the residual activity is 70% on Autotaxin (Homo sapiens) [1], 57% on Autotaxin (Homo sapiens) [2] and 85% at Autotaxin (Homo sapiens) [3].

As for `CCCCCCCCCCCCCCCC(=O)N[C@@H](Cc1ccc(OCc2ccccn2)cc1)C(O)CP(=O)(O)O` (single isomer, unassigned; diastereomer a), the residual activity on Autotaxin (Homo sapiens) [1] is 81%; on Autotaxin (Homo sapiens) [2], 52%; at Autotaxin (Homo sapiens) [3], 104%.

As for `CCCCCCCCCCCCCCCC(=O)N[C@H](Cc1ccc(OCc2ccccn2)cc1)C(O)CP(=O)(O)O` (stereo in doubt; f9), the residual activity at Autotaxin (Homo sapiens) [1] amounted to 76%; at Autotaxin (Homo sapiens) [2], 60%; at Autotaxin (Homo sapiens) [3], 103%.

As for `CCCCCCCCCCCCCCCC(=O)N[C@H](Cc1ccc(OCc2cc(OCC(F)(F)F)ccn2)cc1)C(O)CP(=O)(O)O` (single isomer, unassigned; diastereomer a), the residual activity worked out at 84% at Autotaxin (Homo sapiens) [1], 55% on Autotaxin (Homo sapiens) [2] and 92% on Autotaxin (Homo sapiens) [3].

For `CCCCCCCCCCCCCCCC(=O)N[C@H](Cc1ccc(OCc2ncc(C)c(OC)c2C)cc1)C(O)CP(=O)(O)O` (single isomer, unassigned; diastereomer b), the residual activity came to 64% at Autotaxin (Homo sapiens) [1], 47% on Autotaxin (Homo sapiens) [2] and 69% at Autotaxin (Homo sapiens) [3].

Regarding `CCCCCCCCCCCCCCCC(=O)N[C@@H](Cc1ccc(OC)cc1)C(=O)CP(=O)(O)O`, the values for the residual activity on Autotaxin (Homo sapiens) [1], at Autotaxin (Homo sapiens) [2] and on Autotaxin (Homo sapiens) [3] were 68%, 45% and 96%, respectively.

As to `CCCCCCCCCCCCCCCC(=O)N[C@@H](Cc1ccc(OCCC)cc1)C(O)CP(=O)(O)O` (single isomer, unassigned; diastereomer a), the residual activity was 97% at Autotaxin (Homo sapiens) [1], 77% on Autotaxin (Homo sapiens) [2] and 110% at Autotaxin (Homo sapiens) [3].

On to `CCCCCCCCCCCCCCCC(=O)N[C@H](Cc1ccc(OCc2ccccn2)cc1)C(O)CP(=O)(O)O` (single isomer, unassigned; diastereomer b), for which the residual activity is 78% at Autotaxin (Homo sapiens) [1], 69% at Autotaxin (Homo sapiens) [2] and 92% on Autotaxin (Homo sapiens) [3].

Take `CCCCCCCCCCCCCCCC(=O)N[C@@H](Cc1ccc(OCc2cc(OCC(F)(F)F)ccn2)cc1)C(O)CP(=O)(O)O` (single isomer, unassigned; diastereomer b): the residual activity at Autotaxin (Homo sapiens) [1] was 83%; at Autotaxin (Homo sapiens) [2], 56%; at Autotaxin (Homo sapiens) [3] it was 103%.

In the case of `CCCCCCCCCCCCCCCC(=O)N[C@H](Cc1ccc(OCc2ncc(C)c(OC)c2C)cc1)C(=O)CP(=O)(O)O`, the residual activity worked out at 74% at Autotaxin (Homo sapiens) [1], 26% on Autotaxin (Homo sapiens) [2] and 71% on Autotaxin (Homo sapiens) [3].

Regarding `CCCCCCCCCCCCCCCC(=O)N[C@H](Cc1ccc(OC)cc1)C(O)CP(=O)(O)O` (single isomer, unassigned; diastereomer a), the residual activity at Autotaxin (Homo sapiens) [1] is 78%; on Autotaxin (Homo sapiens) [2], 57%; at Autotaxin (Homo sapiens) [3] it was 100%.

On to `CCCCCCCCCCCCCCCCCCCC(=O)N[C@@H](Cc1ccc(OCc2ncc(C)c(OC)c2C)cc1)C(O)CP(=O)(O)O` (single isomer, unassigned; diastereomer a), for which the values for the residual activity at Autotaxin (Homo sapiens) [1], on Autotaxin (Homo sapiens) [2] and on Autotaxin (Homo sapiens) [3] were 45%, 10% and 64%, respectively.

Values taken from ChEMBL document CHEMBL1144604, “Synthesis and biological evaluation of phosphonate derivatives as autotaxin (ATX) inhibitors” (Bioorg Med Chem Lett, 2007).
